Where two headings read alike, the source gives them in different places.
Assays:
[1] = test system: VCaP cells; test: VCaP growth inhibition assay (CTG); assay type: cell-based; conditions: Homo sapiens, 216 h, 30 pM R1881, 9 days
Procedure, shortened: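 Growth was measured by CTG luminescence after a 9-day exposure of VCaP cells to compound (final 10 fM–100 nM, fivefold steps) in the presence of 30 pM final R1881, in phenol red-free DMEM/5% CSS. IC50 values were derived by nonlinear 4-parameter regression of RLU against concentration.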

[2] = target: AR / CBP ternary complex (Homo sapiens, UniProt P10275+Q92793); test: Ternary complex formation assay (sandwich ELISA, AR capture, CBP antibody detection) in VCaP cell lysates; assay type: cell-based
Sequence of AR / CBP ternary complex (P10275 whole entry): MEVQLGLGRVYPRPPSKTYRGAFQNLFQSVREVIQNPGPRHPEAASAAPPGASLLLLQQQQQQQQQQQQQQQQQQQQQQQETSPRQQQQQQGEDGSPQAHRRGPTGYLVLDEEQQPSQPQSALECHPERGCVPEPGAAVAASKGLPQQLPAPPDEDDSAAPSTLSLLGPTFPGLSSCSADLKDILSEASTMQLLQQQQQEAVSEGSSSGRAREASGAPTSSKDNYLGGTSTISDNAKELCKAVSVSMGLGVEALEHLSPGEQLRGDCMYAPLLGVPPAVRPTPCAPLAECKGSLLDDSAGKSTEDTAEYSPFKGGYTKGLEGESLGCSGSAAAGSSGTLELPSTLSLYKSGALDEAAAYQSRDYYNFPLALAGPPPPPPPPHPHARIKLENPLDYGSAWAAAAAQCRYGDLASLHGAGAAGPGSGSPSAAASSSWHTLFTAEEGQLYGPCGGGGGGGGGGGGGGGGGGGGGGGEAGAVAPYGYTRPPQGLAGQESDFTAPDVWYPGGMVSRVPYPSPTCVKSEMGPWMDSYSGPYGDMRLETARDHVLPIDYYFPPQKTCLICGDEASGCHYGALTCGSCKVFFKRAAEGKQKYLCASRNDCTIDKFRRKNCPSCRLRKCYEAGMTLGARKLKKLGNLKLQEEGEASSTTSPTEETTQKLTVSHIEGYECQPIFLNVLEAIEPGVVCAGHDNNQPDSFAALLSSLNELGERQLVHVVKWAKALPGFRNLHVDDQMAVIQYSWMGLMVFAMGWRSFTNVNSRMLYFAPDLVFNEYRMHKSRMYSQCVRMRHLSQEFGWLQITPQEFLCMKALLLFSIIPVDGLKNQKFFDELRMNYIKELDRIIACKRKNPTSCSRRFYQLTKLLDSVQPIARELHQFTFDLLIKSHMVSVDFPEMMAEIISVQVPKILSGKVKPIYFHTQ
Sequence of AR / CBP ternary complex (Q92793 2-2442): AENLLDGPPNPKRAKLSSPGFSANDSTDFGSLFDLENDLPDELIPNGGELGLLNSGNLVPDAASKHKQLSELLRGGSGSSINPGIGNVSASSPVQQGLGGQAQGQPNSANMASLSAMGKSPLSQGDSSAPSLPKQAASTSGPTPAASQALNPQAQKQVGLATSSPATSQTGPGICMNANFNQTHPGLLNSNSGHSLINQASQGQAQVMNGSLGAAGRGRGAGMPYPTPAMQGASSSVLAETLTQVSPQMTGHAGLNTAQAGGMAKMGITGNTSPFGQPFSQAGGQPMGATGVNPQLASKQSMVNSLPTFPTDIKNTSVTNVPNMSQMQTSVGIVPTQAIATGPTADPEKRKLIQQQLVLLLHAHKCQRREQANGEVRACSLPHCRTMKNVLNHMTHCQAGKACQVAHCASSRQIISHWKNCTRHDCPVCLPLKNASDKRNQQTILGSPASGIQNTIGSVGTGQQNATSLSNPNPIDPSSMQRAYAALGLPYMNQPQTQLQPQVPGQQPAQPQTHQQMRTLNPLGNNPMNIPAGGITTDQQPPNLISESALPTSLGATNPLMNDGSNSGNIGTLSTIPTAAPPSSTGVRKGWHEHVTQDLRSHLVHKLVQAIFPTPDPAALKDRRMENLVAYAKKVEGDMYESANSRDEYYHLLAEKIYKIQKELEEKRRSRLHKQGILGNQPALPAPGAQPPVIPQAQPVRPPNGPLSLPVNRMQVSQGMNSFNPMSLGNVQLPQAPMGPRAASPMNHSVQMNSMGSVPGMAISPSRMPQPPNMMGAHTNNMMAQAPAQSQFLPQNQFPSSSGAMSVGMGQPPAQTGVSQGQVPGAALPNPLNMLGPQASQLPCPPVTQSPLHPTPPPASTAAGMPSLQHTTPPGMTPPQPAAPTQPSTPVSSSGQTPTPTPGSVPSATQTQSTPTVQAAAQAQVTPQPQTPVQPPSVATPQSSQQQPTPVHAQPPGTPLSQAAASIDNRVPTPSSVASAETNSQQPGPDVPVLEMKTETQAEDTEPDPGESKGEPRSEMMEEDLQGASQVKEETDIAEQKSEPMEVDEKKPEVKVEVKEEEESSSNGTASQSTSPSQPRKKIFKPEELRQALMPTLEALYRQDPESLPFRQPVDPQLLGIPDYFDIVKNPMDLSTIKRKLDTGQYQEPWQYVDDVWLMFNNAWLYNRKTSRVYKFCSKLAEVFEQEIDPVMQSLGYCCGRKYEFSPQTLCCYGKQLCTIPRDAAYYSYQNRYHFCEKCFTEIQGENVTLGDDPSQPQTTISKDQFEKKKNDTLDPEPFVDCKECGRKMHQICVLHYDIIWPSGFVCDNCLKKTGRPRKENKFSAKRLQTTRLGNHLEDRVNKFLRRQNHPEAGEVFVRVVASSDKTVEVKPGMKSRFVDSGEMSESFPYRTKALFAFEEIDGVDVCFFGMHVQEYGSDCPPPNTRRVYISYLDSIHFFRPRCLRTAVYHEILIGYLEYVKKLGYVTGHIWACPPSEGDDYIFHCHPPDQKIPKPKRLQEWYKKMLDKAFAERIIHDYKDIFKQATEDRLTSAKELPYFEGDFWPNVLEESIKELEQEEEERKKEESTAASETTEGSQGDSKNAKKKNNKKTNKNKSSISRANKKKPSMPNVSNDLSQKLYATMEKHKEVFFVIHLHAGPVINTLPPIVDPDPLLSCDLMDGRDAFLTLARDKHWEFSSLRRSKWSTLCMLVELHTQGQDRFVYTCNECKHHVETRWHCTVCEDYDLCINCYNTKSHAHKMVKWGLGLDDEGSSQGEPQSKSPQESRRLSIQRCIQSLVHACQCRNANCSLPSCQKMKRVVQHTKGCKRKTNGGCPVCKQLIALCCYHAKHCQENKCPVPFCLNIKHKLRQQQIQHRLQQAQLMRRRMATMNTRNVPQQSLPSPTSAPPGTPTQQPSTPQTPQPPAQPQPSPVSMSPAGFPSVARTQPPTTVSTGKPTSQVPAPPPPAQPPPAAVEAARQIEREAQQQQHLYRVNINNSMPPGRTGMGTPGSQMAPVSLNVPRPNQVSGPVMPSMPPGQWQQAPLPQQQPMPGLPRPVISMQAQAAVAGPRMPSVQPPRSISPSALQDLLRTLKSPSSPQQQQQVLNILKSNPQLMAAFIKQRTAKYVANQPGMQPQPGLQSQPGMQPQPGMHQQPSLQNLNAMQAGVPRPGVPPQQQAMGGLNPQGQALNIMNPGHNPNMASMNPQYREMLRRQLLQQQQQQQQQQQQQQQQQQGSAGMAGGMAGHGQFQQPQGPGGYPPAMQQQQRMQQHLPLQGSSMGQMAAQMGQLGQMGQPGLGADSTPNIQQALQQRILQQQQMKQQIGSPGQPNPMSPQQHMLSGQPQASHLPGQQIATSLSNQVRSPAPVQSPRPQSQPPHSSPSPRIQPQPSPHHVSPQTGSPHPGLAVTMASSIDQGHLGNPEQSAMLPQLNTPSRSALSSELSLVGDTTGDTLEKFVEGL
Procedure, shortened: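 Sandwich ELISA: plates were coated with anti-AR antibody (AR441) and given lysates of VCaP cells treated 1.5 h with bifunctional compound in charcoal-stripped serum. Co-captured CBP or p300 was probed with rabbit mAbs and HRP secondary. Chemifluorescent signal (ex 570/em 585) was read at 0, 5 and 15 min.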

[3] = treated 1.5 hours, rabbit CBP or p300 antibody detection, average, read-out: Average Ternary Complex

| SMILES | IC50 [1] [nM] | EC50 [2, 3] [nM] | EC50 ([2]; read-out: Average Ternary Complex, treated 1.5 hours, rabbit CBP or p300 antibody detection) [nM] |
| --- | --- | --- | --- |
| CC(=O)N1CCc2c(c(N3CCCc4cc(-c5cnn(C)c5)c(C(F)F)cc43)nn2C2CCN([C@@H]3CCN(c4ccc(C(=O)N[C@H]5CC[C@H](Oc6ccc(C#N)c(Cl)c6)CC5)nn4)C3)CC2)C1 [Compound 222, 6-[(3R)-3-[4-[5-acetyl-3-[7-(difluoromethyl)-6-(1-methylpyrazol-4-yl)-3,4-dihydro-2H-quinolin-1-yl]-6,7-dihydro-4H-pyrazolo[4,3-c]pyridin-1-yl]-1-piperidyl]pyrrolidin-1-yl]-N-[4-(3-chloro-4-cyano-phenoxy)cyclohexyl] pyridazine-3-carboxamide] | 0.1 to 1 | < 1 |  |
| CC(=O)N1CCc2c(c(N3CCCc4cc(-c5cnn(C)c5)c(C(F)F)cc43)nn2[C@H]2CC[C@@H](OC3CN(c4ccc(C(=O)N[C@H]5CC[C@H](Oc6ccc(C#N)c(Cl)c6)CC5)nn4)C3)CC2)C1 [Compound 223, 6-[3-[4-[5-acetyl-3-[7-(difluoromethyl)-6-(1-methylpyrazol-4-yl)-3,4-dihydro-2H-quinolin-1-yl]-6,7-dihydro-4H-pyrazolo[4,3-c]pyridin-1-yl]cyclohexoxy]azetidin-1-yl]-N-[4-(3-chloro-4-cyano-phenoxy)cyclohexyl]pyridazine-3-carboxamide] | ≤ 0.1 | < 1 |  |
| CC(=O)N1CCc2c(c(N3CCCc4cc(-c5cnn(C)c5)c(C(F)F)cc43)nn2C2CCC3(CC2)CC(N2CCN(c4ccc(C(=O)N[C@H]5CC[C@H](Oc6ccc(C#N)c(Cl)c6)CC5)nn4)CC2)C3)C1 (some centres unmarked) [Compound 208, 6-[4-[7-[5-acetyl-3-[7-(difluoromethyl)-6-(1-methylpyrazol-4-yl)-3,4-dihydro-2H-quinolin-1-yl]-6,7-dihydro-4H-pyrazolo[4,3-c]pyridin-1-yl]spiro[3.5]nonan-2-yl]piperazin-1-yl]-N-[4-(3-chloro-4-cyano-phenoxy)cyclohexyl]pyridazine-3-carboxamide] | ≤ 0.1 |  | < 1 |
| CC(=O)N1CCc2c(c(N3CCCc4cc(-c5cnn(C)c5)c(C(F)F)cc43)nn2[C@H]2CC[C@@]3(CCCN(c4ccc(C(=O)N[C@H]5CC[C@H](Oc6ccc(C#N)c(Cl)c6)CC5)nn4)C3)CC2)C1 [Compound 267, 6-[9-[5-acetyl-3-[7-(difluoromethyl)-6-(1-methylpyrazol-4-yl)-3,4-dihydro-2H-quinolin-1-yl]-6,7-dihydro-4H-pyrazolo[4,3-c]pyridin-1-yl]-2-azaspiro[5.5]undecan-2-yl]-N-[4-(3-chloro-4-cyano-phenoxy)cyclohexyl]pyridazine-3-carboxamide] | 1 to 100 | < 1 |  |
| CC(=O)N1CCc2c(c(N3CCCc4cc(-c5cnn(C)c5)c(C(F)F)cc43)nn2C2CCN(C(=O)CC3CCN(c4ccc(C(=O)N[C@H]5CC[C@H](Oc6ccc(C#N)c(Cl)c6)CC5)nn4)CC3)CC2)C1 [Compound 14, 6-[4-[2-[4-[5-acetyl-3-[7-(difluoromethyl)-6-(1-methylpyrazol-4-yl)-3,4-dihydro-2H-quinolin-1-yl]-6,7-dihydro-4H-pyrazolo[4,3-c]pyridin-1-yl]-1-piperidyl]-2-oxo-ethyl]-1-piperidyl]-N-[4-(3-chloro-4-cyano-phenoxy)cyclohexyl]pyridazine-3-carboxamide] | ≤ 0.1 | < 1 |  |
| Cn1c(=O)sc2ccc(-c3cccc4cc(-c5ccc(CCC6CCN(c7ccc(C(=O)N[C@H]8CC[C@H](Oc9ccc(C#N)c(Cl)c9)CC8)nn7)CC6)nc5)ncc34)cc21 [Compound 55, N-[4-(3-chloro-4-cyano-phenoxy)cyclohexyl]-6-[4-[2-[5-[8-(3-methyl-2-oxo-1,3-benzothiazol-5-yl)-3-isoquinolyl]-2-pyridyl]ethyl]-1-piperidyl]pyridazine-3-carboxamide] | > 100 | < 1 |  |
| Cc1cc2c(N3CCN(C)c4cc(-c5cnn(C)c5)c(C#N)cc43)cc(OCCC3CCN(c4ccc(C(=O)N[C@H]5CC[C@H](Oc6ccc(C#N)c(Cl)c6)CC5)nn4)CC3)cc2n(C)c1=O [Compound 38, N-[4-(3-chloro-4-cyano-phenoxy)cyclohexyl]-6-[4-[2-[[5-[7-cyano-4-methyl-6-(1-methylpyrazol-4-yl)-2,3-dihydroquinoxalin-1-yl]-1,3-dimethyl-2-oxo-7-quinolyl]oxy]ethyl]-1-piperidyl]pyridazine-3-carboxamide] | 0.1 to 1 | > 100 |  |
| CC(=O)N1CCc2c(c(-c3cccc4cc(-c5cnn(C)c5)ncc34)nn2C2CCN(CC3CCN(c4ccc(C(=O)N[C@H]5CC[C@H](Oc6ccc(C#N)c(Cl)c6)CC5)cn4)CC3)CC2)C1 [Compound 161, 6-[4-[[4-[5-acetyl-3-[3-(1-methylpyrazol-4-yl)-8-isoquinolyl]-6,7-dihydro-4H-pyrazolo[4,3-c]pyridin-1-yl]-1-piperidyl]methyl]-1-piperidyl]-N-[4-(3-chloro-4-cyano-phenoxy)cyclohexyl]pyridine-3-carboxamide] | ≤ 0.1 | < 1 |  |
| CC(=O)N1CCc2c(c(N3CCCc4cc(-c5cnn(C)c5)c(C(F)F)cc43)nn2C2CCN(C3CC4(CC(Oc5ccc(C(=O)N[C@H]6CC[C@H](Oc7ccc(C#N)c(Cl)c7)CC6)nn5)C4)C3)CC2)C1 (some centres unmarked) [Compound 247, 6-[6-[4-[5-acetyl-3-[7-(difluoromethyl)-6-(1-methylpyrazol-4-yl)-3,4-dihydro-2H-quinolin-1-yl]-6,7-dihydro-4H-pyrazolo[4,3-c]pyridin-1-yl]-1-piperidyl]spiro[3.3]heptan-2-yl]oxy-N-[4-(3-chloro-4-cyano-phenoxy)cyclohexyl]pyridazine-3-carboxamide] | ≤ 0.1 | < 1 |  |
| CC(=O)N1CCc2c(c(N3CCCc4cc(-c5cnn(C)c5)c(C(F)F)cc43)nn2C2CC3(C2)CC2(CCN(c4ccc(C(=O)N[C@H]5CC[C@H](Oc6ccc(C#N)c(Cl)c6)CC5)nn4)CC2)C3)C1 [Compound 191, 6-[2-[5-acetyl-3-[7-(difluoromethyl)-6-(1-methylpyrazol-4-yl)-3,4-dihydro-2H-quinolin-1-yl]-6,7-dihydro-4H-pyrazolo[4,3-c]pyridin-1-yl]-9-azadispiro[3.1.56.14]dodecan-9-yl]-N-[4-(3-chloro-4-cyano-phenoxy)cyclohexyl] pyridazine-3-carboxamide] | 0.1 to 1 | < 1 |  |
| CC(=O)N1CCc2c(c(N3CCCc4cc(-c5cnn(C)c5)c(C(F)F)cc43)nn2C2CCN(CC3CCN(c4ccc(C(=O)N[C@H]5CC[C@H](Oc6ccc(C#N)c(Cl)c6)CC5)cn4)CC3)CC2)C1 [Compound 18, 6-[4-[[4-[5-acetyl-3-[7-(difluoromethyl)-6-(1-methylpyrazol-4-yl)-3,4-dihydro-2H-quinolin-1-yl]-6,7-dihydro-4H-pyrazolo[4,3-c]pyridin-1-yl]-1-piperidyl]methyl]-1-piperidyl]-N-[4-(3-chloro-4-cyano-phenoxy)cyclohexyl]pyridine-3-carboxamide] | ≤ 0.1 | < 1 |  |
| CC(=O)N1CCc2c(c(N3CCCc4cc(-c5cnn(C)c5)c(C(F)F)cc43)nn2C2CC3(C2)CN(C(=O)C2CC4(C2)CN(c2ccc(C(=O)N[C@H]5CC[C@H](Oc6ccc(C#N)c(Cl)c6)CC5)nn2)C4)C3)C1 (some centres unmarked) [Compound 40, 6-[6-[6-[5-acetyl-3-[7-(difluorodimethyl)-6-(1-methylpyrazol-4-yl)-3,4-dihydro-2H-quinolin-1-yl]-6,7-dihydro-4H-pyrazolo[4,3-c]pyridin-1-yl]-2-azaspiro[3.3]heptane-2-carbonyl]-2-azaspiro[3.3]heptan-2-yl]-N-[4-(3-chloro-4-cyano-phenoxy)cyclohexyl]pyridazine-3-carboxamide] | 0.1 to 1 | 1 to 10 |  |
| CC(=O)N1CCc2c(c(N3CCCc4cc(-c5cnn(C)c5)c(C(F)F)cc43)nn2C2CCN(C[C@@H]3CCN(c4ccc(C(=O)N[C@H]5CC[C@H](Oc6ccc(C#N)c(Cl)c6)CC5)nn4)C[C@@H]3C)CC2)C1 [Compound 233] | ≤ 0.1 | < 1 |  |
| COc1cc(O[C@H]2CC[C@H](NC(=O)c3ccc(N4CCC(C(=O)N5CCC(n6nc(N7CCCc8cc(-c9cnn(C)c9)c(C(F)F)cc87)c7c6CCN(C(C)=O)C7)CC5)CC4)cc3)CC2)ccc1C#N [Compound 160, 4-[4-[4-[5-acetyl-3-[7-(difluoromethyl)-6-(1-methylpyrazol-4-yl)-3,4-dihydro-2H-quinolin-1-yl]-6,7-dihydro-4H-pyrazolo[4,3-c]pyridin-1-yl]piperidine-1-carbonyl]-1-piperidyl]-N-[4-(4-cyano-3-methoxy-phenoxy)cyclohexyl]benzamide] | ≤ 0.1 | < 1 |  |
| CC(=O)N1CCc2c(c(N3CCCc4cc(-c5cnn(C)c5)c(C(F)F)cc43)nn2C2CCN([C@@H]3CCCN(c4ccc(C(=O)N[C@H]5CC[C@H](Oc6ccc(C#N)c(Cl)c6)CC5)nn4)C3)CC2)C1 [Compound 259, 6-[(3R)-3-[4-[5-acetyl-3-[7-(difluoromethyl)-6-(1-methylpyrazol-4-yl)-3,4-dihydro-2H-quinolin-1-yl]-6,7-dihydro-4H-pyrazolo[4,3-c]pyridin-1-yl]-1-piperidyl]-1-piperidyl]-N-[4-(3-chloro-4-cyano-phenoxy)cyclohexyl]pyridazine-3-carboxamide] | 1 to 100 | 1 to 10 |  |
| CC(=O)N1CCc2c(c(N3CCCc4cc(C#N)ccc43)nn2C2CCN(C(=O)C3CCN(c4ccc(C(=O)N[C@H]5CC[C@H](Oc6ccc(C#N)c(Cl)c6)CC5)nn4)CC3)CC2)C1 [Compound 61, 6-[4-[4-[5-acetyl-3-(6-cyano-3,4-dihydro-2H-quinolin-1-yl)-6,7-dihydro-4H-pyrazolo[4,3-c]pyridin-1-yl]piperidine-1-carbonyl]-1-piperidyl]-N-[4-(3-chloro-4-cyano-phenoxy)cyclohexyl]pyridazine-3-carboxamide] | ≤ 0.1 | < 1 |  |
